Measurements reported in PubChem BioAssay AID248 (DTP/NCI, 2004).
Where “and” joins values, the source holds several entries; their conditions need not be identical. Equal values may be shown once. Inconclusive results and toxic doses are left out. Cut-off read from the data, not from the text of the source: active = T/C of 150% or more; inactive = T/C below 125%.

Tested on: L1210 leukemia ip in BDF1 mice, survival T/C
Test: NCI In Vivo Anticancer Drug Screen. Data for tumor model L1210 Leukemia (intraperitoneal) in B6D2F1 (BDF1) mice
Conditions: endpoint: mean survival time, higher = longer survival
Summary of the method: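 Antitumor effect is assessed in tumor-bearing animals. Survival in the compound arm is compared with a vehicle-dosed control arm and expressed as their quotient.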

[1] = dose: 100.0 mg/kg/injection, schedule: Q01DX001 (ip), vehicle: saline
[2] = dose: 200.0 mg/kg/injection, schedule: Q01DX001 (ip), vehicle: saline
[3] = dose: 400.0 mg/kg/injection, schedule: Q01DX001 (ip), vehicle: saline
[4] = dose: 100.0 mg/kg/injection, schedule: Q04DX003 (ip), vehicle: saline with Tween-80
[5] = dose: 200.0 mg/kg/injection, schedule: Q04DX003 (ip), vehicle: saline with Tween-80
[6] = dose: 400.0 mg/kg/injection, schedule: Q04DX003 (ip), vehicle: saline with Tween-80
[7] = dose: 100.0 mg/kg/injection, schedule: Q01DX009 (ip), vehicle: Klucel (hydroxypropylcellulose) (HPC)
[8] = dose: 100.0 mg/kg/injection, schedule: Q04DX003 (ip), vehicle: Klucel (hydroxypropylcellulose) (HPC)
[9] = dose: 200.0 mg/kg/injection, schedule: Q01DX009 (ip), vehicle: Klucel (hydroxypropylcellulose) (HPC)
[10] = dose: 200.0 mg/kg/injection, schedule: Q04DX003 (ip), vehicle: Klucel (hydroxypropylcellulose) (HPC)
[11] = dose: 400.0 mg/kg/injection, schedule: Q01DX009 (ip), vehicle: Klucel (hydroxypropylcellulose) (HPC)
[12] = dose: 400.0 mg/kg/injection, schedule: Q04DX003 (ip), vehicle: Klucel (hydroxypropylcellulose) (HPC)
[13] = dose: 100.0 mg/kg/injection, schedule: Q04DX002 (ip), vehicle: Klucel (hydroxypropylcellulose) (HPC)
[14] = dose: 200.0 mg/kg/injection, schedule: Q04DX002 (ip), vehicle: Klucel (hydroxypropylcellulose) (HPC)
[15] = dose: 400.0 mg/kg/injection, schedule: Q04DX002 (ip), vehicle: Klucel (hydroxypropylcellulose) (HPC)
[16] = dose: 100.0 mg/kg/injection, schedule: Q01DX009 (ip), vehicle: saline with Tween-80
[17] = dose: 200.0 mg/kg/injection, schedule: Q01DX009 (ip), vehicle: saline with Tween-80
[18] = dose: 400.0 mg/kg/injection, schedule: Q01DX009 (ip), vehicle: saline with Tween-80
[19] = dose: 100.0 mg/kg/injection, schedule: Q04DX002 (ip), vehicle: saline with Tween-80
[20] = dose: 200.0 mg/kg/injection, schedule: Q04DX002 (ip), vehicle: saline with Tween-80
[21] = dose: 100.0 mg/kg/injection, schedule: Q01DX001 (ip), vehicle: carboxymethylcellulose (CMC)
[22] = dose: 200.0 mg/kg/injection, schedule: Q01DX001 (ip), vehicle: carboxymethylcellulose (CMC)
[23] = dose: 400.0 mg/kg/injection, schedule: Q01DX001 (ip), vehicle: carboxymethylcellulose (CMC)

Measured: T/C

Oc1ccc2ccccc2c1/C=N/N1CCN(/N=C/c2c(O)ccc3ccccc23)CC1
inactive: [1] 104 % of control | [2] 96 % of control | [3] 90 % of control

O=C1OC(c2cccc([N+](=O)[O-])c2)=N/C1=C\c1ccc(O)cc1
inactive: dose: 100.0 mg/kg/injection, schedule: Q04DX002 (ip), vehicle: saline 101 % of control | dose: 200.0 mg/kg/injection, schedule: Q04DX002 (ip), vehicle: saline 101 % of control | dose: 400.0 mg/kg/injection, schedule: Q04DX002 (ip), vehicle: saline 101 % of control

CCCC(=O)Nc1ccc(Cl)c(Cl)c1
inactive: [4] 98 % of control | [5] 102 % of control | [6] 89 % of control

CCSc1nc(=S)cc(C)[nH]1
inactive: [7] 96 % of control | [8] 103 % of control | [9] 91 % of control | [10] 98 % of control | [11] 90 % of control | [12] 87 % of control

CCCCNC(=O)NCCN(C)c1ccccc1
inactive: [13] 94 % of control | [14] 97 % of control | [15] 102 % of control

O=c1ccs[nH]1
inactive: dose: 12.5 mg/kg/injection, schedule: Q04DX003 (ip), vehicle: saline with Tween-80 106 % of control | dose: 25.0 mg/kg/injection, schedule: Q04DX003 (ip), vehicle: saline with Tween-80 98 % of control

CN(Cc1cnc2nc(N)nc(N)c2n1)c1ccccc1
inactive: dose: 20.0 mg/kg/injection, schedule: Q01DX009 (ip), vehicle: saline with Tween-80 97 % of control | dose: 40.0 mg/kg/injection, schedule: Q01DX009 (ip), vehicle: saline with Tween-80 101 % of control | dose: 80.0 mg/kg/injection, schedule: Q01DX009 (ip), vehicle: saline with Tween-80 98 % of control

COc1ccc(C=O)cc1OCCCCCOc1cc(C=O)ccc1OC
inactive: dose: 50.0 mg/kg/injection, schedule: Q01DX009 (ip), vehicle: Klucel (hydroxypropylcellulose) (HPC) 86 % of control | [7] 101 % of control | [9] 90 % of control

Clc1ccc(C(c2ccc(Cl)cc2)c2ccccn2)cc1
inactive: [7] 92 % of control | [8] 98 % of control | [9] 97 % of control | [10] 95 % of control | [12] 97 % of control

Cc1ccc(NC(=O)Nc2ccc(Cl)c(Cl)c2)cc1Cl
inactive: [7] 97 % of control | [8] 93 % of control | [9] 87 % of control | [10] 96 % of control | [11] 92 % of control | [12] 91 % of control

C=CCc1cnc(SCc2ccccc2)[nH]c1=O
inactive: dose: 100.0 mg/kg/injection, schedule: Q01DX001 (ip), vehicle: gum acacia 101 % of control | dose: 200.0 mg/kg/injection, schedule: Q01DX001 (ip), vehicle: gum acacia 91 % of control | dose: 400.0 mg/kg/injection, schedule: Q01DX001 (ip), vehicle: gum acacia 94 % of control

Cc1ccnc(NC(=O)Nc2ccccc2F)c1
inactive: [1] 97 % of control and 106 % of control | [16] 92 % of control | dose: 100.0 mg/kg/injection, schedule: Q04DX003 (ip), vehicle: saline 95 % of control | [2] 101 % of control | [17] 96 % of control | dose: 200.0 mg/kg/injection, schedule: Q04DX003 (ip), vehicle: saline 101 % of control | [3] 97 % of control and 88 % of control | [18] 91 % of control | dose: 400.0 mg/kg/injection, schedule: Q04DX003 (ip), vehicle: saline 101 % of control

Cc1c[n+]([O-])c(C)cc1N=Nc1ccc(N(C)C)cc1
inactive: dose: 50.0 mg/kg/injection, schedule: Q01DX009 (ip), vehicle: saline with Tween-80 111 % of control | [16] 95 % of control | [19] 89 % of control | [17] 90 % of control | [20] 99 % of control

COc1ccc(C(=O)O)c(CC#N)c1
inactive: [8] 97 % of control | [10] 87 % of control

N#CC(CC(=O)c1ccccc1)c1ccccc1 (stereo not drawn)
inactive: [16] 97 % of control | [17] 100 % of control | [18] 107 % of control

CN(C)c1ncnc2nsnc12
inactive: [4] 100 % of control

CSc1ccc(NC(=O)C2CCCCC2C(=O)O)cc1 (stereo not drawn)
inactive: [13] 92 % of control | [14] 111 % of control | [15] 96 % of control

COc1c(OC)c(OC)c2c(c1OC)c(=O)c1ccccc1n2C
inactive: dose: 50.0 mg/kg/injection, schedule: Q01DX001 (ip), vehicle: carboxymethylcellulose (CMC) 93 % of control | [21] 102 % of control | [22] 96 % of control | [23] 98 % of control

CSc1nnc2sc(C)nn12
inactive: [21] 104 % of control | [22] 104 % of control | [23] 102 % of control

CCOC(=O)C(=CN1CCOCC1)C(=O)OCC
inactive: [16] 100 % of control | [4] 120 % of control | [17] 100 % of control | [5] 102 % of control | [18] 100 % of control | [6] 98 % of control

CC/C=N/Nc1ccnc(SCc2ccccc2)n1
inactive: dose: 100.0 mg/kg/injection, schedule: Q04DX003 (ip), vehicle: gum acacia 103 % of control | dose: 200.0 mg/kg/injection, schedule: Q04DX003 (ip), vehicle: gum acacia 97 % of control | dose: 400.0 mg/kg/injection, schedule: Q04DX003 (ip), vehicle: gum acacia 94 % of control

COc1ccc(/C=C2\N=C(c3cc(OC)c(OC)c(OC)c3)OC2=O)cc1OC
inactive: [13] 123 % of control | [14] 101 % of control | [15] 101 % of control

CCN(CCC#N)C(=S)Nc1ccc(C)c(C)c1
inactive: [19] 89 % of control | [20] 108 % of control | dose: 400.0 mg/kg/injection, schedule: Q04DX002 (ip), vehicle: saline with Tween-80 86 % of control

CCCOC(=O)COc1ccc(Cl)cc1C
inactive: [8] 96 % of control | [10] 96 % of control | [12] 91 % of control

O=c1[nH]c2c(Cl)cc(Cl)cc2c2ccccc12
inactive: [21] 87 % of control | [22] 92 % of control | [23] 100 % of control

Cc1ccc(S(=O)(=O)OC2CC3CCC2C3)cc1 (stereo not drawn)
inactive: dose: 100.0 mg/kg/injection, schedule: Q01DX009 (ip), vehicle: other 107 % of control | dose: 200.0 mg/kg/injection, schedule: Q01DX009 (ip), vehicle: other 100 % of control | dose: 400.0 mg/kg/injection, schedule: Q01DX009 (ip), vehicle: other 102 % of control

Clc1ccc2nc(CI)c(CI)nc2c1
inactive: dose: 6.25 mg/kg/injection, schedule: Q01DX009 (ip), vehicle: acetone 102 % of control | dose: 12.5 mg/kg/injection, schedule: Q01DX009 (ip), vehicle: acetone 102 % of control | dose: 12.5 mg/kg/injection, schedule: Q04DX003 (ip), vehicle: acetone 104 % of control | dose: 25.0 mg/kg/injection, schedule: Q04DX003 (ip), vehicle: acetone 96 % of control
